Reference: article PMC2996585 (Journal of medicinal chemistry, 2010)
“Also recorded” adds a separate entry of the source. Like-named read-outs stand apart in the source and are kept apart here. Bridges are numbered along the chain shown (N, C = ends). Where no end group is shown, it is not given here.

Molecular target: T1, ENaC (Homo sapiens, UniProt P37088)
T1 sequence (P37088 1-669): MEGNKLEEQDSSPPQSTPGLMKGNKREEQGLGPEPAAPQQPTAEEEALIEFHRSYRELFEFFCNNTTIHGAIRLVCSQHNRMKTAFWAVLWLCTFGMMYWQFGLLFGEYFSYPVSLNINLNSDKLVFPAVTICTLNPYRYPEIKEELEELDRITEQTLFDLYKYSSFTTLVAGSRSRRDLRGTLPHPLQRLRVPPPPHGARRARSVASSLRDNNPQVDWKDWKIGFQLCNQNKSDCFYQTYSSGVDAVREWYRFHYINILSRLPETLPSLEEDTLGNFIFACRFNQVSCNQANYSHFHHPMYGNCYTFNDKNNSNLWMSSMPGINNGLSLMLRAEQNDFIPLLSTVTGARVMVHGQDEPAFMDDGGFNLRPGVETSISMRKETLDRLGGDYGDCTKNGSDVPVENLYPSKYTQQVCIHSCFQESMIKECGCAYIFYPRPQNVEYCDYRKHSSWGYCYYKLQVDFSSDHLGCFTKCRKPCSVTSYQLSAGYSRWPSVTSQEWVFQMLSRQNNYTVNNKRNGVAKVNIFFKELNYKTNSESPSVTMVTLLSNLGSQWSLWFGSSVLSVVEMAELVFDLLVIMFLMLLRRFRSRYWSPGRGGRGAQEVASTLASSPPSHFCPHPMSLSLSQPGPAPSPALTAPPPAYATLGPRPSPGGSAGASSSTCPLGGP
T1 sequence (P51168 1-640 partner): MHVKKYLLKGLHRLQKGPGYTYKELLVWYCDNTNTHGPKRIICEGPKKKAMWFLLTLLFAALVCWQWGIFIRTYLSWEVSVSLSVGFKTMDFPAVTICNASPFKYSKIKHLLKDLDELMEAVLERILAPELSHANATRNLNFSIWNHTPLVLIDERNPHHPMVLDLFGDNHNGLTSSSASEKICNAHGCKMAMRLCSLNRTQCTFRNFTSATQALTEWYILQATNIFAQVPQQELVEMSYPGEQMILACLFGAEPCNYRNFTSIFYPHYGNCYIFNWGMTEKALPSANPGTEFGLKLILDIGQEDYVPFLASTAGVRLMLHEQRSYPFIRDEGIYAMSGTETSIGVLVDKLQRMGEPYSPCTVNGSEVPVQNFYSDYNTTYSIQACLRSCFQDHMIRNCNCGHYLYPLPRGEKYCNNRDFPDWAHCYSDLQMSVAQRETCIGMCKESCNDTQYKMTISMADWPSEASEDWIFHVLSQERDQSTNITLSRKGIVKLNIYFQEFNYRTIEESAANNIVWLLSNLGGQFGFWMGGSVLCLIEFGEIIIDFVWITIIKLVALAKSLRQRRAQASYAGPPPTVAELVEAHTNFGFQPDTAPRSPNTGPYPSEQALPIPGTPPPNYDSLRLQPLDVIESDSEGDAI
T1 sequence (P51170 1-649 partner): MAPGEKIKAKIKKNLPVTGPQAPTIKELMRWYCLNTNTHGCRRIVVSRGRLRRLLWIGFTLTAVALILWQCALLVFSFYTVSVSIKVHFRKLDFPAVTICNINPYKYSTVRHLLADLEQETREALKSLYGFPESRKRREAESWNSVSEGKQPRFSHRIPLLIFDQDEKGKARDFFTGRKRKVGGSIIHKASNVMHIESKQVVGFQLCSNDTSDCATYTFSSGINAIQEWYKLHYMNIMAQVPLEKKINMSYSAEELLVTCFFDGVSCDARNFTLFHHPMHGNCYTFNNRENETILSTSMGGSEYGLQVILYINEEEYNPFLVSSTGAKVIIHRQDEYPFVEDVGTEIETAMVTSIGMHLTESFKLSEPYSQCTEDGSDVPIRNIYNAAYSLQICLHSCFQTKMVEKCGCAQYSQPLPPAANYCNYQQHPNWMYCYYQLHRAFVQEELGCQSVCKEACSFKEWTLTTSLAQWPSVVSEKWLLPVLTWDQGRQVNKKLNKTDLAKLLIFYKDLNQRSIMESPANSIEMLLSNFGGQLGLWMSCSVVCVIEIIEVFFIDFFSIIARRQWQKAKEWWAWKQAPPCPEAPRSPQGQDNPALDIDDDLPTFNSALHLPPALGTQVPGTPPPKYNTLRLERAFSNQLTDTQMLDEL
Type: cell-based
Conditions: A549 cells, whole-cell patch clamp; for ENaC-activating effect / effect on sodium current (in words): no concentration stated at the place

Substance	Effect on ENaC (concentrations up to 240 nM)	Effect on ENaC (concentrations up to 480 nM)	ENaC-activating effect / effect on sodium current (in words)	ENaC-activating effect / effect on sodium current (in words) (listed as 22)
Cyclo(6-aminohexanoic acid-GQRETPEGAEAKPWYG) (head to tail) [compound 11]	no effect	no effect	inactive	did not affect ENaC
Cyclo(4-aminobutanoic acid-GQRETPEGAEAKPWYG) (head to tail) [compound 7]	no effect	no effect	did not affect ENaC; also recorded: inactive	–
Cyclo(7-aminoheptanoic acid-GQRETPEGAEAKPWY) (head to tail) [compound 10]	no effect	no effect	–	–
Cyclo(5-aminopentanoic acid-GQRETPEGAEAKPWYG) (head to tail) [compound 6]	no effect	no effect	did not affect ENaC; also recorded: inactive	–
CGQREAPAGAAAKPWYC (disulfide 1-17) [compound 12, reference compound]	–	no effect	ineffective; also recorded: no effect	–
CQRETPEGAEAKGGC (disulfide 1-15) [compound 2]	–	no effect	ineffective; also recorded: inactive	–
